{"source": "patent US20190142775A1", "about": "“TREATING ACTIVATED DERMAL CONDITIONS WITH AGENTS THAT TARGET ENERGY METABOLISM” (Sciaderm, Inc., priority 2016, published 2019)", "key": {"[1]": {"tested_on": "psoriatic plaques", "assay": "Open label case report: topical 3-BP formulation applied to psoriatic plaques of one subject", "type": "in vivo, human", "experimental": "The present Example describes use of an exemplary topical formulation of 3-BP in the treatment of psoriasis. The goal of this study is to reduce the hyper-proliferation of skin cells and deactivate the inflammatory response associated with the condition. Therefore, treatment was planned in a sequential dose escalating fashion. Dose escalation is accomplished by a step wise increase in formulation strength and/or application volume and frequency. Daily or twice daily doses were administered, with an initial strength ranging from about 0.001% to about 0.05% and administered doses were increased incrementally to a final strength ranging from about 5% to about 25% of the total weight of the formulation. As a first objective, the maximum tolerated dose was established, which was indicated by the observation of local irritation in the area of application. In some cases, once local irritation was observed, dosing was then reduced by approximately factor of four and continued or readjusted as appropriate to assess efficacy.\nAn exemplary topical formulation of 3-BP was prepared as described below: […]\nAn exemplary 3-Bromo-Pyruvic Acid (“BPA”) formulation was compounded as a lotion of low viscosity, filled dropper bottles (e.g., a 3 mL dropper bottle).\nCompounding: 3-Bromo-Pyruvic Acid, BPA, CAS#1113-59-3, was obtained from AK Scientific, Inc., Union City, Calif. and stored at frozen conditions. Given the known instability of BPA at higher pH (e.g., physiologic pH) the final formulation consisted of 75% acetic acid (5% w/w) and 25% compounding base with a pH of approximately 3.0. During formulation, all ingredients were chilled to +5° C., and kept on ice for the entire procedure.\nStock solution A was prepared by dissolving the appropriate amount of solid bromopyruvic acid, BPA, in 5% acetic acid at a concentration of 2% to 10% (w/w); depending on the desired final concentration, intermediate dilutions of for example 1:5, using 5% acetic acid, may have been prepared as well.\nStock solution B consisted of a commercially available compounding base, Vanicream™, NDC 45334-300-16, that was diluted 1:1 in 5% acetic acid. The final formulation was comprised of blending BPA solution (Stock A) with compounding base (Stock B) at a ratio of 1:1. The resulting formulation is of low viscosity and filled in 3 ml ophthalmic dropper bottles.\nFinal concentration of BPA was between 0.15 mM (0.0025% w/w) and 300 mM (5.0% w/w). To preserve stability of the active ingredient, the formulation was stored frozen at −18° C. until use. Once treatment application commenced, bottles were kept at refrigerated conditions (+5° C.) for up to 1 week and then replaced with freshly made product.\nThis research was conducted as an out-patient, open label, intra-individually controlled repeated measurement experiment involving up to 10 subjects. To minimize bias, subjects were treated at selected target plaques. Neighboring plaques serve as an intra-individual control.\nAn exemplary 3-BP formulation was self-administered as one or two drops per application, depending on size of the treatment area. Care was taken for drops to fall freely from the dropper tip to ensure a consistent dose volume of ≈25-50 μl/drop. Most treatment applications were done in the morning and photographs were taken mostly in the evening to allow possible moisturizing effects of the compounding base to wear off.\nWithin each treatment area, the severity is estimated by three clinical signs: erythema (redness), induration (thickness) and desquamation (scaling). Efficacy is assessed using the Investigators Global Assessment scale and the Psoriasis Area Severity Index (PASI), which are summarized in Tables 1 and 2 below. In addition, target lesions are photographed and adjudicated by a blinded independent investigator. These efficacy variables were assessed at every visit.\nSafety is assessed by collection of research events and review of concomitant treatments. Clinical adverse event reporting is conducted at each visit. […]"}, "[2]": {"conditions": "at higher pH (e.g., physiologic pH); cited from earlier work"}, "[3]": {"conditions": "Plaque #3, right forearm, one drop per day, 1.75 mM, one week"}, "[4]": {"conditions": "Plaque #4, left forearm, 0.15 mM, QD, 2.5 weeks"}, "[5]": {"conditions": "Plaque #5, left elbow, 1 drop per day, 0.15 mM, 10 days"}}}
{"smiles": "O=C(O)C(=O)CBr", "note": "[3-BP, 3-bromopyruvate]", "values": [{"measurement": "Adverse effects at a strength of 0.5 mM", "setting": "[1]; 0.5 mM, summary of case report", "value": "without any observable adverse effects"}, {"measurement": "Efficacy at a strength of 0.5 mM", "setting": "[1]; 0.5 mM, summary of case report", "value": "highly effective"}, {"measurement": "Plaque status 20 weeks after last treatment application", "setting": "[1]; Plaque 1, left forearm, 26 weeks after baseline (FIG. 1)", "value": "complete remission"}, {"measurement": "Local adverse effects", "setting": "[1]; Plaque 1, left forearm, BID, 0.1% to 5.0% (6-300 mM), after approximately one week of treatment", "value": "local irritation, oozing, and crusting"}, {"measurement": "Treatment effect on psoriatic plaque", "setting": "[1]; Plaque 1, left forearm, one drop twice per day, strength escalated 0.1% to 5.0% (6-300 mM) in first week, later reduced to QD and 0.1%, stopped after 6 weeks", "value": "completely resolved"}, {"measurement": "Plaque status 20 weeks after last treatment application", "setting": "[1]; Plaque #2, right forearm", "value": "complete remission"}, {"measurement": "Duration of complete remission after last treatment application", "setting": "[1]; Plaque #2, right forearm, as of the date of the last visit", "value": "approximately 8 months"}, {"measurement": "Tolerability / local adverse effects", "setting": "[1]; Plaque #2, right forearm, once daily 0.1% (6 mM) one week, then 0.03% (1.75 mM) two weeks", "value": "well tolerated and only some mild local irritation"}, {"measurement": "Treatment effect on psoriatic plaque", "setting": "[1]; Plaque #2, right forearm, once daily 0.1% (6 mM) one week, then 0.03% (1.75 mM) two weeks, Day 21", "value": "mostly resolved"}, {"measurement": "Tolerability", "setting": "[1]; Plaque #3, right forearm, 0.5 mM, once per day", "value": "well tolerated"}, {"measurement": "Treatment effect on severity of psoriasis plaques", "setting": "[1]; Plaque #3, right forearm, 1 mM QD 10 days, then 0.5 mM once per day", "value": "Significant improvement"}, {"measurement": "Local adverse effects", "setting": "[1]; Plaque #3, right forearm, 1 mM, QD, 10 days", "value": "minor local irritation"}, {"measurement": "Plaque status after treatment was stopped", "setting": "[1]; Plaque #3, right forearm, after 1.75 mM QD and 6 mM every other day", "value": "psoriatic skin afflictions remained"}, {"measurement": "Local adverse effects", "setting": "[1]; [3]", "value": "itching and pin-head sized crusting"}, {"measurement": "Treatment effect on psoriatic plaque", "setting": "[1]; [3]", "value": "improved"}, {"measurement": "Local adverse effects", "setting": "[1]; Plaque #3, right forearm, resumed at 6 mM every other day after one week pause", "value": "local irritation became more pronounced"}, {"measurement": "Tolerability", "setting": "[1]; [4]", "value": "well tolerated"}, {"measurement": "Treatment effect on psoriatic plaque", "setting": "[1]; [4]", "value": "only marginal efficacy"}, {"measurement": "Time plaque remained resolved after the last application", "setting": "[1]; Plaque #4, left forearm, 0.5 mM", "value": "more than 6 weeks"}, {"measurement": "Local adverse effects", "setting": "[1]; Plaque #4, left forearm, 0.5 mM, Day 18 to 43", "value": "did not induce any local irritancy or other unwanted effects"}, {"measurement": "Treatment effect on psoriatic plaque", "setting": "[1]; Plaque #4, left forearm, 0.5 mM, Day 18 to 43, continued treatment", "value": "completely resolved"}, {"measurement": "Treatment effect on psoriatic plaque", "setting": "[1]; Plaque #5, left elbow, 0.5 mM, 1 drop QD Days 10-19, 2 drops QD from Day 20, Day 47 (FIG. 4), versus untreated right elbow", "value": "completely clear of psoriasis"}, {"measurement": "Tolerability", "setting": "[1]; [5]", "value": "well tolerated"}, {"measurement": "Treatment effect on psoriatic plaque", "setting": "[1]; [5]", "value": "only marginal improvement"}, {"measurement": "Response of all treated plaques", "setting": "[1]; five different or recurring psoriasis plaques, over a period of three to six weeks", "value": "responded favorably or completely resolved"}, {"measurement": "Concentration inducing local irritation / at which adverse events started to emerge", "setting": "[1]; local irritation, including oozing and crusting, summary of case report", "value": "≥ 1.0", "unit": "mM"}, {"measurement": "Outcome of local adverse effects after cessation of treatment", "setting": "[1]; within a few weeks after treatment was stopped", "value": "resolved without sequelae"}, {"measurement": "Stability of BPA", "setting": "[2]", "value": "instability"}]}
